Measured values from patent US5395947A, “Platinum(II) complex and processes for preparing the same” (Sunkyong Industries, Ltd., priority 1991, dated 1995).

Legend:
[1] = test system: murine leukemia L1210 cells; assay: Growth inhibition test on cultured murine leukemia L1210 cells; assay type: cell-based; conditions: 48 hours, 37° C., Trypan blue viability
Method in brief: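 L1210 cells (1×10^5) exposed to graded compound concentrations in RPMI 1640 with 10% fetal calf serum, 37° C, 5% CO2, 48 h. Viability by 0.17% Trypan blue staining, relative to untreated control cells.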

murine leukemia L1210 = assay: Antitumor activity test on murine leukemia L1210 in vivo; parameters: species or system male BDF1 mice; conditions: days 1, 5, 9
Method in brief: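 Intraperitoneal L1210 model: 1×10^6 cells inoculated i.p. into 6-week-old male BDF1 mice (21±3 g) on day 0, seven per group. Compounds in 0.5% CMC given i.p. on days 1, 5 and 9; vehicle-only controls. T/C % from mean survival time of treated over control.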

[2] = Test for water solubility; assay type: physicochemical; conditions: water
Excerpt: 3. Test for water solubility
A standard plot of UV absorbance(220 nm) vs. concentration was made; and employed to determine water-solubility.
The mixture was then passed through a 0.45 micron disposable membrane filter before dilution and UV measurement.

ICR mice = assay: Acute toxicity test; assay type: in vivo; parameters: Lethality: unit not given here; conditions: for Lethality: 10080 min
Method in brief: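 Male and female 7-week-old ICR mice, 6 per group, dosed intraperitoneally. Signs and survival followed for 7 days, with autopsy of animals that died.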

## O=C1[O][Pt-2]2([NH2+]CC3OCOC3C[NH2+]2)[O]C(=O)C12CCC2 [Example 20, cis-cyclobutane-1,1-dicarboxylato [(4R,5R)-4,5-bis(aminomethyl)-1,3-dioxolane]platinum (II)]
[1]
  IC50 (concentration required for 50% inhibition of growth): 1.28 µg/mL
Murine leukemia L1210; 6.2 mg/kg i.p.
  T/C (%): 122%
Murine leukemia L1210; 12.5 mg/kg i.p.
  T/C (%): 187%
Murine leukemia L1210; 25 mg/kg i.p.
  T/C (%): 137%
Murine leukemia L1210; 50 mg/kg i.p.
  T/C (%): 193%
Murine leukemia L1210; 100 mg/kg i.p.
  T/C (%): 271%
[2]
  Solubility in water: 3.1 mg/mL
ICR mice; female, 94 mg/kg i.p.
  Number of dead mice for 7 days: 0/6
  Number of dead mice, 1st day: 0/6
ICR mice; female, 123 mg/kg i.p.
  Number of dead mice for 7 days: 2/6
  Number of dead mice, 1st day: 0/6
  Number of dead mice, 4th day: 2/6
  Lethality: 33.3
ICR mice; female, 160 mg/kg i.p.
  Number of dead mice for 7 days: 4/6
  Number of dead mice, 1st day: 0/6
  Number of dead mice, 4th day: 2/6
  Number of dead mice, 5th day: 2/4
  Lethality: 66.7
ICR mice; female, 208 mg/kg i.p.
  Number of dead mice for 7 days: 6/6
  Number of dead mice, 1st day: 0/6
  Number of dead mice, 3rd day: 1/6
  Number of dead mice, 4th day: 5/5
  Lethality: 100.0
ICR mice; female, 270 mg/kg i.p.
  Number of dead mice for 7 days: 6/6
  Number of dead mice, 1st day: 0/6
  Number of dead mice, 2nd day: 4/6
  Number of dead mice, 3rd day: 2/2
  Lethality: 100.0
ICR mice; male, 94 mg/kg i.p.
  Number of dead mice for 7 days: 0/6
  Number of dead mice, 1st day: 0/6
ICR mice; male, 123 mg/kg i.p.
  Number of dead mice for 7 days: 2/6
  Number of dead mice, 1st day: 1/6
  Number of dead mice, 5th day: 1/5
  Lethality: 33.3
ICR mice; male, 160 mg/kg i.p.
  Number of dead mice for 7 days: 5/6
  Number of dead mice, 1st day: 0/6
  Number of dead mice, 4th day: 2/6
  Number of dead mice, 5th day: 1/4
  Number of dead mice, 6th day: 2/3
  Lethality: 83.3
ICR mice; male, 208 mg/kg i.p.
  Number of dead mice for 7 days: 6/6
  Number of dead mice, 1st day: 0/6
  Number of dead mice, 4th day: 6/6
  Lethality: 100.0
ICR mice; male, 270 mg/kg i.p.
  Number of dead mice for 7 days: 6/6
  Number of dead mice, 1st day: 0/6
  Number of dead mice, 2nd day: 4/6
  Number of dead mice, 3rd day: 2/2
  Lethality: 100.0

## CC1OC2C[NH2+][Pt-2]3([NH2+]CC2O1)[O]C(=O)C1(CCC1)C(=O)[O]3 [Example 22, cis-cyclobutane-1,1-dicarboxylato[(4R,5R)-4,5-bis(aminomethyl)-2-methyl-1,3-dioxolane]platinum(II)]
[1]
  IC50 (concentration required for 50% inhibition of growth): 0.90 µg/mL
Murine leukemia L1210; 6.2 mg/kg i.p.
  T/C (%): 125%
Murine leukemia L1210; 12.5 mg/kg i.p.
  T/C (%): 129%
Murine leukemia L1210; 25 mg/kg i.p.
  T/C (%): 247%
Murine leukemia L1210; 50 mg/kg i.p.
  T/C (%): 262%
Murine leukemia L1210; 100 mg/kg i.p.
  T/C (%): 382%
[2]
  Solubility in water: 24.9 mg/mL
ICR mice; female, 94 mg/kg i.p.
  Number of dead mice for 7 days: 0/6
  Number of dead mice, 1st day: 0/6
ICR mice; female, 123 mg/kg i.p.
  Number of dead mice for 7 days: 1/6
  Number of dead mice, 1st day: 0/6
  Number of dead mice, 4th day: 1/6
  Lethality: 16.7
ICR mice; female, 160 mg/kg i.p.
  Number of dead mice for 7 days: 3/6
  Number of dead mice, 1st day: 0/6
  Number of dead mice, 4th day: 2/6
  Number of dead mice, 5th day: 1/4
  Lethality: 50.0
ICR mice; female, 208 mg/kg i.p.
  Number of dead mice for 7 days: 5/6
  Number of dead mice, 1st day: 0/6
  Number of dead mice, 3rd day: 1/6
  Number of dead mice, 4th day: 4/5
  Lethality: 83.3
ICR mice; female, 270 mg/kg i.p.
  Number of dead mice for 7 days: 6/6
  Number of dead mice, 1st day: 0/6
  Number of dead mice, 2nd day: 4/6
  Number of dead mice, 3rd day: 2/2
  Lethality: 100.0
ICR mice; male, 94 mg/kg i.p.
  Number of dead mice for 7 days: 0/6
  Number of dead mice, 1st day: 0/6
ICR mice; male, 123 mg/kg i.p.
  Number of dead mice for 7 days: 0/6
  Number of dead mice, 1st day: 0/6
ICR mice; male, 160 mg/kg i.p.
  Number of dead mice for 7 days: 4/6
  Number of dead mice, 1st day: 1/6
  Number of dead mice, 4th day: 1/5
  Number of dead mice, 5th day: 1/4
  Number of dead mice, 6th day: 1/3
  Lethality: 66.7
ICR mice; male, 208 mg/kg i.p.
  Number of dead mice for 7 days: 5/6
  Number of dead mice, 1st day: 0/6
  Number of dead mice, 4th day: 4/6
  Number of dead mice, 5th day: 1/2
  Lethality: 83.3
ICR mice; male, 270 mg/kg i.p.
  Number of dead mice for 7 days: 6/6
  Number of dead mice, 1st day: 0/6
  Number of dead mice, 2nd day: 2/6
  Number of dead mice, 3rd day: 4/4
  Lethality: 100.0
